Assay results taken from patent US6479435B1, “Diaryl ethers and processes for their preparation and herbicidal and desiccant compositions containing them” (ISK Americas Incorporated, priority 1997, dated 2002).

Columns and labels:
Assay type in all cases: in vivo
[1] = system: upland rice (Oryza sp., var.Tebonnet, RICE); assay: Pre-emerge greenhouse test, crop damage rating; details: 14 days after application, rating scale 0-100
Description: (§1) A standard greenhouse herbicide activity screening system was used to evaluate the herbicidal efficacy and crop safety of these test compounds. Six broadleaf weed species including redroot pigweed (Amaranthus retroflexus, AMARE), velvetleaf (Abutilon theophrasti, ABUTH), sicklepod (Cassia obtusifolia, CASOB), ivyleaf morningglory (Ipomoea hederacea, IPOHE), lambsquarters (Chenopodium album, CHEAL) and common ragweed (Ambrosia artemisiifolia L., AMBEL) were used as test species. Four grass weed species including green foxtail (Setaria viridis, SETVI), barnyardgrass (Echinochloa crusgalli, ECHCG), Johnsongrass (Sorghum halepense, SORHA), and large crabgrass (Digitaria sanguinalis, DIGSA) were also used. In addition, three crop species, field corn (Zea mays L., var. Dekalb 535, CORN), soybean (Glycine max L., var. Pella 86, SOY), and upland rice (Oryza sp., var.Tebonnet, RICE) were included.
(§2) All plants were grown in 10 cm square plastic pots which were filled with a sandy loam soil mix. For preemerge tests, seeds were planted one day prior to application of the test compounds. Immediately after application, test units of the pre-emerge applications were watered at the soil surface to incorporate the test materials. Subsequently, these test units were bottom-watered.
(§3) All test compounds were dissolved in acetone and applied to the test units in a volume of 187 l/ha. Test materials were applied at rates ranging from 125 g ai/ha to 1000 g ai/ha using a track sprayer equipped with a TJ8001E even flow flat fan spray nozzle. Plants were arranged on a shelf so that the top of the canopy (post-emerge) or top of the soil surface (pre-emerge) was 40-45 cm below the nozzle. Pressurized air was used to force the test solution through the nozzle as it was mechanically advanced (via electrically driven chain drive) over the top of all test plants/pots. This application simulates a typical commercial field herbicide application.
(§4) At 14 days after application of the test materials, phytotoxicity ratings were recorded. A rating scale of 0-100 was used as previously described in Research Methods in Weed Science, 2nd edition, B. Truelove, Ed., Southern Weed Science Society, Auburn University, Auburn, Ala., 1977. Briefly, “0” corresponds to no damage and “100” corresponds to complete death of all plants in the test unit. This scale was used both to determine efficacy against weed species and damage to crop species. Herbicide activity data for various compounds of this invention, which are shown by compound number in Tables 1-9, are shown in Tables 13 and 14.

[2] = system: field corn (Zea mays L., var. Dekalb 535, CORN); assay: Pre-emerge greenhouse test, crop damage rating; details: 14 days after application, rating scale 0-100
Description: as §1, §2, §3, §4

[3] = system: lambsquarters (Chenopodium album, CHEAL); assay: Post-emerge greenhouse herbicide test, phytotoxicity rating; details: 14 days after application; for phytotoxicity rating CHEAL: scale 0-100
Description: as §1, §3
(§5) In the post-emerge test, a commercial non-ionic surfactant was also included (0.25% v/v) to enhance wetting of the leaf surfaces Qf target plants at rates ranging from 63 g ai/ha to 1000 g ai/ha. For post-emerge tests, seeds were planted 8-21 days prior to the test to allow emergence and good foliage development prior to application of the test substances. At the time of the post-emerge application, plants of all species were usually at the 2-3 leaf stage of development. Post-emerge test units were always bottom-watered.
as §4

[4] = system: ivyleaf morningglory (Ipomoea hederacea, IPOHE); assay: as above; details: 14 days after application; for phytotoxicity rating IPOHE: scale 0-100
Description: as §1, §3, §5, §4

[5] = system: Johnsongrass (Sorghum halepense, SORHA); assay: as above; details: 14 days after application; for phytotoxicity rating SORHA: scale 0-100
Description: as §1, §3, §5, §4

[6] = system: redroot pigweed (Amaranthus retroflexus, AMARE); assay: as above; details: 14 days after application; for phytotoxicity rating AMARE: scale 0-100
Description: as §1, §3, §5, §4

[7] = system: velvetleaf (Abutilon theophrasti, ABUTH); assay: as above; details: 14 days after application; for phytotoxicity rating ABUTH: scale 0-100
Description: as §1, §3, §5, §4

[8] = system: sicklepod (Cassia obtusifolia, CASOB); assay: as above; details: 14 days after application; for phytotoxicity rating CASOB: scale 0-100
Description: as §1, §3, §5, §4

[9] = system: barnyardgrass (Echinochloa crusgalli, ECHCG); assay: as above; details: 14 days after application; for phytotoxicity rating ECHCG: scale 0-100
Description: as §1, §3, §5, §4

[10] = system: green foxtail (Setaria viridis, SETVI); assay: as above; details: 14 days after application; for phytotoxicity rating SETVI: scale 0-100
Description: as §1, §3, §5, §4

[11] = system: large crabgrass (Digitaria sanguinalis, DIGSA); assay: as above; details: 14 days after application; for phytotoxicity rating DIGSA: scale 0-100
Description: as §1, §3, §5, §4

[12] = system: soybean (Glycine max L., var. Pella 86, SOY); assay: Post-emerge greenhouse test, crop damage rating; parameters: key to crop damage rating SOY: 0-100 scale: 0 = no damage, 100 = complete death of all plants; details: 14 days after application; for crop damage rating SOY: scale 0-100
Description: as §1, §3, §5, §4

[13] = system: soybean (Glycine max L., var. Pella 86, SOY); assay: Pre-emerge greenhouse test, crop damage rating; parameters: key to SOY crop damage rating: 0 = no damage, 100 = complete death of all plants; details: 14 days after application, rating scale 0-100
Description: as §1, §2, §3, §4

[14] = system: upland rice (Oryza sp., var.Tebonnet, RICE); assay: Post-emerge greenhouse test, crop damage rating; details: 14 days after application; for crop damage rating RICE: scale 0-100
Description: as §1, §3, §5, §4

[15] = system: field corn (Zea mays L., var. Dekalb 535, CORN); assay: Post-emerge greenhouse test, crop damage rating; details: 14 days after application; for crop damage rating CORN: scale 0-100
Description: as §1, §3, §5, §4

[16] = system: lambsquarters (Chenopodium album, CHEAL); assay: Pre-emerge greenhouse herbicide test, phytotoxicity rating; details: 14 days after application, rating scale 0-100
Description: as §1, §2, §3, §4

[17] = system: ivyleaf morningglory (Ipomoea hederacea, IPOHE); assay: as above; details: 14 days after application, rating scale 0-100
Description: as §1, §2, §3, §4

[18] = system: Johnsongrass (Sorghum halepense, SORHA); assay: as above; details: 14 days after application, rating scale 0-100
Description: as §1, §2, §3, §4

[19] = system: redroot pigweed (Amaranthus retroflexus, AMARE); assay: as above; details: 14 days after application, rating scale 0-100
Description: as §1, §2, §3, §4

[20] = system: velvetleaf (Abutilon theophrasti, ABUTH); assay: as above; details: 14 days after application, rating scale 0-100
Description: as §1, §2, §3, §4

[21] = system: sicklepod (Cassia obtusifolia, CASOB); assay: as above; details: 14 days after application, rating scale 0-100
Description: as §1, §2, §3, §4

[22] = system: barnyardgrass (Echinochloa crusgalli, ECHCG); assay: as above; details: 14 days after application, rating scale 0-100
Description: as §1, §2, §3, §4

[23] = system: green foxtail (Setaria viridis, SETVI); assay: as above; details: 14 days after application, rating scale 0-100
Description: as §1, §2, §3, §4

[24] = system: large crabgrass (Digitaria sanguinalis, DIGSA); assay: as above; details: 14 days after application, rating scale 0-100
Description: as §1, §2, §3, §4

CS(=O)(=O)Nc1ccc(Oc2cc(-n3c(=O)cc4n(c3=O)CCC4)c(F)cc2Cl)cc1 [Compound 5-5]
crop damage rating RICE ([1]; 500 g ai/ha): 0 | crop damage rating CORN ([2]; 500 g ai/ha): 0 | CHEAL phytotoxicity rating (0-100) ([3]; 500 g al/ha): 0 | IPOHE phytotoxicity rating (0-100) ([4]; 500 g al/ha): 0 | SORHA phytotoxicity rating (0-100) ([5]; 500 g al/ha): 0 | AMARE phytotoxicity rating (0-100) ([6]; 500 g al/ha): 0 | ABUTH phytotoxicity rating (0-100) ([7]; 500 g al/ha): 0 | CASOB phytotoxicity rating (0-100) ([8]; 500 g al/ha): 0 | ECHCG phytotoxicity rating (0-100) ([9]; 500 g al/ha): 0 | SETVI phytotoxicity rating (0-100) ([10]; 500 g al/ha): 0 | DIGSA phytotoxicity rating (0-100) ([11]; 500 g al/ha): 0 | SOY crop damage rating (0-100) ([12]; 500 g al/ha): 0 | crop damage rating SOY ([13]; 500 g ai/ha): 10 | RICE crop damage rating (0-100) ([14]; 500 g al/ha): 0 | CORN crop damage rating (0-100) ([15]; 500 g al/ha): 0 | phytotoxicity rating CHEAL ([16]; 500 g ai/ha): 100 | phytotoxicity rating IPOHE ([17]; 500 g ai/ha): 0 | phytotoxicity rating SORHA ([18]; 500 g ai/ha): 0 | phytotoxicity rating AMARE ([19]; 500 g ai/ha): 95 | phytotoxicity rating ABUTH ([20]; 500 g ai/ha): 50 | phytotoxicity rating CASOB ([21]; 500 g ai/ha): 0 | phytotoxicity rating ECHCG ([22]; 500 g ai/ha): 0 | phytotoxicity rating SETVI ([23]; 500 g ai/ha): 0 | phytotoxicity rating DIGSA ([24]; 500 g ai/ha): 0

Nn1c(C(F)(F)F)cc(=O)n(-c2cc(Oc3cccc(C(F)(F)F)c3)c(Cl)cc2F)c1=O [Compound 9-25, 1-Amino-3-[4-chloro-2-fluoro-5-(3-trifluoromethylphenoxy)phenyl]-6-trifluoro-methyl-1,2,3,4-tetrahydropyrimidine-2,4-dione]
RICE crop damage rating ([1]; Rate 125 g al/ha): 40 | RICE crop damage rating ([1]; Rate 500 g al/ha): 90 | CORN crop damage rating ([2]; Rate 125 g al/ha): 20 | CORN crop damage rating ([2]; Rate 500 g al/ha): 40 | phytotoxicity rating CHEAL ([3]; rate 63 g ai/ha): 100 | phytotoxicity rating CHEAL ([3]; rate 500 g ai/ha): 100 | phytotoxicity rating IPOHE ([4]; rate 63 g ai/ha): 100 | phytotoxicity rating IPOHE ([4]; rate 500 g ai/ha): 100 | phytotoxicity rating SORHA ([5]; rate 63 g ai/ha): 10 | phytotoxicity rating SORHA ([5]; rate 500 g ai/ha): 70 | phytotoxicity rating AMARE ([6]; rate 63 g ai/ha): 100 | phytotoxicity rating AMARE ([6]; rate 500 g ai/ha): 100 | phytotoxicity rating ABUTH ([7]; rate 63 g ai/ha): 95 | phytotoxicity rating ABUTH ([7]; rate 500 g ai/ha): 100 | phytotoxicity rating CASOB ([8]; rate 63 g ai/ha): 50 | phytotoxicity rating CASOB ([8]; rate 500 g ai/ha): 100 | phytotoxicity rating ECHCG ([9]; rate 63 g ai/ha): 10 | phytotoxicity rating ECHCG ([9]; rate 500 g ai/ha): 0 | phytotoxicity rating SETVI ([10]; rate 63 g ai/ha): 30 | phytotoxicity rating SETVI ([10]; rate 500 g ai/ha): 80 | phytotoxicity rating DIGSA ([11]; rate 63 g ai/ha): 0 | phytotoxicity rating DIGSA ([11]; rate 500 g ai/ha): 60 | crop damage rating SOY ([12]; rate 63 g ai/ha): 60 | crop damage rating SOY ([12]; rate 500 g ai/ha): 80 | SOY crop damage rating ([13]; Rate 125 g al/ha): 50 | SOY crop damage rating ([13]; Rate 500 g al/ha): 80 | crop damage rating RICE ([14]; rate 63 g ai/ha): 5 | crop damage rating RICE ([14]; rate 500 g ai/ha): 35 | crop damage rating CORN ([15]; rate 63 g ai/ha): 15 | crop damage rating CORN ([15]; rate 500 g ai/ha): 35 | CHEAL phytotoxicity rating ([16]; Rate 125 g al/ha): 100 | CHEAL phytotoxicity rating ([16]; Rate 500 g al/ha): 100 | IPOHE phytotoxicity rating ([17]; Rate 125 g al/ha): 70 | IPOHE phytotoxicity rating ([17]; Rate 500 g al/ha): 90 | SORHA phytotoxicity rating ([18]; Rate 125 g al/ha): 80 | SORHA phytotoxicity rating ([18]; Rate 500 g al/ha): 100 | AMARE phytotoxicity rating ([19]; Rate 125 g al/ha): 100 | AMARE phytotoxicity rating ([19]; Rate 500 g al/ha): 100 | ABUTH phytotoxicity rating ([20]; Rate 125 g al/ha): 100 | ABUTH phytotoxicity rating ([20]; Rate 500 g al/ha): 100 | CASOB phytotoxicity rating ([21]; Rate 125 g al/ha): 30 | CASOB phytotoxicity rating ([21]; Rate 500 g al/ha): 80 | ECHCG phytotoxicity rating ([22]; Rate 125 g al/ha): 70 | ECHCG phytotoxicity rating ([22]; Rate 500 g al/ha): 95 | SETVI phytotoxicity rating ([23]; Rate 125 g al/ha): 100 | SETVI phytotoxicity rating ([23]; Rate 500 g al/ha): 100 | DIGSA phytotoxicity rating ([24]; Rate 125 g al/ha): 80 | DIGSA phytotoxicity rating ([24]; Rate 500 g al/ha): 100
